Data reported in US20250263404A1, “AMINOPYRIDINES AS ACTIVATORS OF PI3 KINASE” (UCL Business Ltd, priority 2021, published 2025).

Legend:
[1] = test system: pAKT^S473 in MEFs and A549; assay: Time course of pAKT S473 induction in MEFs and A549; assay type: cell-based; conditions: 1938 (5 μM)
Source text: The inventors next monitored the activation of AKT, the best-known PI3K effector stimulated by PIP3/PI(3,4)P2 production in cells. […] As previously reported, PI3Kα-null MEFs still respond to insulin, but now in a PI3Kβ-dependent manner, as shown by sensitivity of insulin-stimulated pAKT^S473 to the PI3Kβ-selective inhibitor TGX-221 (FIG. 3b). […] Similar observations were made for mTORC1 pathway activation, as measured by S6 (Ser240/44) and 4EBP1 (Ser65) phosphorylation (FIG. 3e). […] Experiments with A549 cells and MEFs were performed separately using slightly different protocols. Briefly, A549 cells were seeded at 200,000 cells per well in 24-well plates in DMEM (10% FBS+1% P/S) and allowed to adhere overnight. The next day, cells were washed once with PBS before addition of serum-free DMEM for 24 h. On the day of treatment, cells were incubated in fresh serum-free DMEM prior to treatment. […]

PI3Kα-WT MEFs = assay: Cell cycle progression by EdU incorporation in MEFs; assay type: cell-based, mouse
Method: Click-IT EdU strategy was used according to manufacturer instructions (Sigma-Aldrich #BCK-FC488-50). Briefly, MEFs were seeded at 50,000 cells per well in 6-well plates in DMEM supplemented with 10% FBS and 1% P/S, and allowed to attach overnight. The next day, cells were serum-starved for 5 h prior to compound addition in fresh serum-free DMEM. At different time points, cells were pulsed for 3 h with 10 μM EdU, followed by collection by trypsinization and fixation with 3.7% FA in PBS for 15 min in the dark, washed in 3% BSA and permeabilized in 1× saponin-based permeabilization buffer for 20 min in the dark. EdU was then detected using the FAM-azide assay cocktail for 30 min in the dark. Cells were washed twice in 1× saponin-based permeabilization buffer followed by analysed with flow cytometer (Novocyte Advanteon flow cytometer, Agilent).

[2] = test system: adult rat dorsal root ganglion (DRG) cultures; assay: Neurite outgrowth in dissociated adult rat DRG cultures; assay type: cell-based; conditions: 72 h
Source text: Given that there are currently no small molecule clinical-stage treatments routinely used to stimulate neuronal regeneration such as for injury to peripheral nerves, the spinal cord or optic nerves, we explored the potential of PI3Kα activation in this context.
Dorsal root ganglion (DRG) neurons were isolated from adult male (>250 g) Wistar rats as described, with DRGs from each rat cultured separately (Rayner, M. L. D. et al. Anatomical record 301, 1628-1637 (2018)). Following culling via schedule 1 (rising concentration of CO2), the spinal column was removed and stored in PBS on ice. Cord tissue was removed to expose the DRG and roots in the intervertebral foramen and the DRGS removed with forceps and scalpel under a dissecting microscope (Olympus SZ40). DRGs were manually cleaned by removal of roots, capsule and capillaries with forceps and then placed in DMEM supplemented with P/S. DRGs were treated with 0.125% collagenase type IV solution at 37° C. for 90 min, and then mechanically dissociated by trituration using a 1 ml pipette. The collagenase solution was removed by 2 rounds of centrifugation in complete DMEM (DMEM with 1% P/S and 10% FBS) at 400×g for 5 min, followed by resuspension of the DRG cell pellet in complete DMEM supplemented with 0.01 mM cytosine arabinoside. DRGs were plated in 75-cm^2 flasks coated with 0.1 mg/ml poly-D-lysine and incubated at 37° C., 5% CO2. […]

**Q.** For `CCN1CCN(c2ccc(Nc3cc(Nc4cccc5c4N(C(C)=O)CC5)ccn3)cc2)CC1` [Example 1938], which “time of onset of pAKT^S473 induction” value [1] is on record?
**A.** 5 min

**Q.** What about the “time of peak pAKT^S473 activation” value [1] of the same compound?
**A.** 30 min

**Q.** And the “cell cycle progression (EdU incorporation)” value (PI3Kα-WT MEFs)?
**A.** induced cell cycle progression

**Q.** And the neurite outgrowth ([2]; dose-dependent)?
**A.** significantly increased neurite outgrowth

**Q.** And the “total length of neurites” value ([2]; higher 1938 concentrations)?
**A.** doubling the total length of neurites
